Test results taken from the supplement of paper PMC10307832.

Tests used:
Test in all cases: relative viability (nuclei count vs DMSO), 5 days (fraction); higher = more cells survive
[1] = compound: CNC(=O)c1ccccc1Sc1ccc2c(/C=C/c3ccccn3)n[nH]c2c1 [Axitinib] + Nc1ncn([C@H]2C[C@H](O)[C@@H](CO)O2)c(=O)n1 [Decitabine] (partner 2 µM)
Summary of the method: (§1)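 Five library-drug doses in √10 steps were combined with a fixed anchor-drug dose, or a single drug was given alone, by pin tool to lung cancer cell lines in 1536-well plates the day after seeding. Nuclei were stained and counted after 5 days. Relative viability is the nuclei count in treated wells over that in vehicle wells, taken as the median of duplicate plates.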

[2] = compound: Nc1nc(Nc2ccc3c(c2)CC[C@@H](N2CCCC2)CC3)nn1-c1cc2c(nn1)-c1ccccc1CCC2 [Bemcentinib] + O=C(CCCCCCC(=O)Nc1ccccc1)NO [Vorinostat] (partner 1 µM)
Summary of the method: as §1

[3] = compound: Nc1nc(Nc2ccc3c(c2)CC[C@@H](N2CCCC2)CC3)nn1-c1cc2c(nn1)-c1ccccc1CCC2 [Bemcentinib] + CC(=O)c1c(C)c2cnc(Nc3ccc(N4CCNCC4)cn3)nc2n(C2CCCC2)c1=O [Palbociclib] (partner 0.5 µM)
Summary of the method: as §1

[4] = compound: CNC(=O)c1ccccc1Sc1ccc2c(/C=C/c3ccccn3)n[nH]c2c1 [Axitinib] + Cc1nc(NC(=O)N2CCC[C@H]2C(N)=O)sc1-c1ccnc(C(C)(C)C(F)(F)F)c1 [Alpelisib] (partner 2 µM)
Summary of the method: as §1

Cell Line	relative viability ([1]; first compound 0.005 µM)	relative viability ([1]; first compound 0.01581 µM)	relative viability ([1]; first compound 0.05 µM)	relative viability ([1]; first compound 0.1581 µM)	relative viability ([1]; first compound 0.5 µM)	relative viability ([2]; first compound 0.04 µM)	relative viability ([2]; first compound 0.1265 µM)	relative viability ([2]; first compound 0.4 µM)	relative viability ([2]; first compound 1.265 µM)	relative viability ([2]; first compound 4 µM)	relative viability ([3]; first compound 0.04 µM)	relative viability ([3]; first compound 0.1265 µM)	relative viability ([3]; first compound 0.4 µM)	relative viability ([3]; first compound 1.265 µM)	relative viability ([3]; first compound 4 µM)	relative viability ([4]; first compound 0.005 µM)	relative viability ([4]; first compound 0.01581 µM)	relative viability ([4]; first compound 0.05 µM)	relative viability ([4]; first compound 0.1581 µM)	relative viability ([4]; first compound 0.5 µM)
NCI-H23	0.327	0.311	0.346	0.299	0.325	0.525	0.604	0.675	0.437	0.545	0.443	0.472	0.558	0.457	0.519	0.83	0.862	0.554	0.861	0.796
LCLC-97TM1	0.193	0.275	0.266	0.247	0.234	0.727	0.703	0.702	0.633	0.829	0.253	0.283	0.231	0.261	0.264	0.252	0.285	0.237	0.205	0.247
SW 1573	0.546	0.544	0.579	0.445	0.617	0.662	0.785	0.873	0.879	0.765	0.395	0.407	0.416	0.391	0.364	0.766	0.954	0.783	0.774	0.738
